# According to paper PMC11280475, “Investigation of Stabilized Amorphous Solid Dispersions to Improve Oral Olaparib Absorption” (Pharmaceutics, 2024):
# Where two headings read alike, the source gives them in different places.
# Experiments:
# [1] = Kinetic solubility of OLA in 1% (w/v) polymer solutions; format: physicochemical; details: thermodynamic from solid, amorphous OLA
# Method: (§1) The polymers used to select the appropriate polymer for OLA-SD were chosen from those widely utilized in solid dispersions. To select the polymers for the solid dispersion system, the solubility of OLA in 1% (w/v) polymer solutions was assessed. Initially, 10 mg of crystalline OLA was added to 1 mL of each polymer solution, vortexed for 10 min, and then shaken at 100 rpm in a 37 °C water bath for 72 h. This process followed the saturation solubility evaluation method described in Section 2.3. Subsequently, to evaluate the kinetic solubility of OLA, both crystalline and amorphous forms, totaling 10 mg, were added to 10 mL of the selected polymer solutions, based on the results of the OLA saturation solubility tests. After vortexing for 10 min, the samples were shaken under the same conditions. During this 72 h period, samples were collected at predetermined intervals of 1, 6, 12, 24, 48, and 72 h, and the concentration of OLA was measured through HPLC analysis.
# [2] = Saturation solubility of OLA in aqueous solutions; format: physicochemical; details: pH 1.2, pH 4.0, pH 6.8, regardless of pH, 37 °C
# Method: The solubility of OLA was evaluated in distilled water (D.W.), pH 1.2, pH 4.0, and pH 6.8 solutions. The pH 1.2 solution was prepared using 0.1 M hydrochloric acid and sodium chloride, while the pH 4.0 solution utilized a 0.05 M sodium acetate buffer solution, and the pH 6.8 solution was made by combining a 0.2 M potassium dihydrogen phosphate solution with a 0.2 M sodium hydroxide solution. To determine the saturation solubility, an excess amount of both crystalline OLA and amorphous OLA, totaling 10 mg each, was added to 1 mL of each solution. The mixtures were vortexed for 10 min and then shaken at 100 rpm in a 37 °C water bath for 72 h. After centrifugation at 13,500 rpm for 10 min, the supernatant was filtered through a 0.45 μm syringe filter to remove insoluble OLA. The resultant solution was diluted tenfold with the HPLC mobile phase, and the concentration of OLA in each solution was measured using the HPLC system mentioned in Section 2.2. Subsequently, to assess the kinetic solubility of OLA, a dissolution test was conducted using 150 mg of both crystalline and amorphous OLA in 900 mL of each aforementioned solution. […] Samples (3 mL) were taken at predetermined times (0.5, 1, 2, 3, 4, 6, 12 h), filtered through a 0.45 μm syringe filter, diluted tenfold with the HPLC mobile phase, and analyzed using the same HPLC system. […]
# [3] = In vivo pharmacokinetic study after oral administration; design: species or system Sprague Dawley (SD) rats; details: rats, 20 mg/kg; for AUC(0-t): read-out: AUC0–24
# Method: Male Sprague Dawley (SD) rats (age: 9–10 weeks, weight: 250 ± 20 g) for the in vivo pharmacokinetic study of OLA-SD were purchased from Koatech Co. (Pyeongtaek, Republic of Korea). The rats were acclimatized to standard laboratory conditions (average temperature of 25 ± 2 °C and a 12/12 h light/dark cycle) for one week before the experiment, with unrestricted access to food and drinking water ad libitum. The Institutional Animal Care and Use Committee (IACUC) of Gyeongsang National University (Approval No. GNU-240228-R0049) approved the animal study protocol in accordance with NIH policies and the Animal Welfare Act. The SD rats were randomly divided into four groups, each consisting of six rats. Each rat was anesthetized, and the right femoral artery was cannulated using a polyethylene tube. Crystalline OLA, amorphous OLA, Kollidon VA64-based OLA-SD (F1), and HPMC P645-based OLA-SD (F3) were dispersed in 1 mL of 0.5% carboxymethyl cellulose and administered orally to the rats at a dose of 20 mg/kg. Blood (350 μL) was collected through the cannulated tube at 0.25, 0.5, 1, 2, 3, 6, 9, 12, and 24 h and immediately centrifuged at 13,500 rpm for 15 min at 4 °C. Subsequently, plasma was separated from the supernatant and stored at −20 °C until quantitative analysis. To analyze the plasma samples, 50 μL of internal standard solution (canagliflozin 20 μg/mL in acetonitrile) and 300 μL of acetonitrile were added to 150 μL of plasma. The samples were then mixed in a vortex blender for 3 min for deproteinization and drug extraction. Subsequently, the samples were centrifuged at 13,500 rpm for 15 min at 4 °C. The supernatant was filtered using a 0.2 μm filter and transferred to analytical vials for HPLC analysis. The concentration of OLA in plasma was analyzed using the second HPLC conditions mentioned in Section 2.2. Pharmacokinetic parameters calculated using non-compartmental analysis included the area under the plasma concentration–time curve from 0 to 24 h (AUC0–24), the maximum plasma concentration (Cmax), the time to reach maximum plasma concentration (Tmax), the elimination rate constant (Kel), the half-life (T1/2), and the mean residence time (MRT).
# The formula for calculating AUC is as follows: AUC=∑i=1n−1(Ci+Ci+1)/2×[…] where Ci and Ci+1 are the concentration of the drug at consecutive time points, ti and ti+1 are the corresponding time points, and n is the number of measured data points.
# The formula for calculating Cmax is as follows: Cmax=max(Ct) where Ct is the concentration of the drug at time t.
# The formula for calculating Tmax is Tmax=t at which Ct is maximal
# The formula for calculating Kel is […] where C1 and C2 are the concentration of the drug at two consecutive time points during the elimination phase, and t1 and t2 are the corresponding time points.
# The formula for calculating T1/2 is T1/2=ln2/Kel where Kel is the elimination rate constant.
# The formula for calculating MRT is MRT=AUMC/AUC where AUMC is the area under the moment curve and AUC is the area under the curve.
# [4] = In vitro dissolution test (USP apparatus II); format: physicochemical; details: 300 mL, 37 °C, 50 rpm, 150 mg OLA equivalent
# Method: To assess the in vitro release of OLA from the solid dispersions, a dissolution test was performed under conditions similar to those described in Section 2.3. Briefly, the dissolution media were adjusted to pH 1.2 and pH 6.8 (300 mL each), with the temperature maintained at 37 ± 0.5 °C, and the test was conducted at a paddle speed of 50 rpm. Each sample of the OLA-SD, equivalent to 150 mg of OLA, was immersed in the dissolution media. Additionally, to examine the effect of polymers in the solid dispersion, a parallel dissolution test was conducted with 150 mg each of crystalline OLA and amorphous OLA. As mentioned, the solution was sampled at predetermined times (1, 6, 12, 18, 24, 48, and 72 h) and the concentration of OLA was assessed using an HPLC system. Additionally, after the kinetic dissolution tests in the pH 1.2 solution, the solution was centrifuged, the supernatant was removed, and the remaining OLA-SD residue was dried overnight for 12 h. The crystallinity state of the dried OLA-SD was examined using an X-ray diffractometer. The detailed method is described in Section 2.6.3.
# [5] = Saturation solubility of crystalline OLA in 1% (w/v) polymer solutions; format: physicochemical; details: 37 °C
# Method: as §1
# [6] = cited from earlier work
# [7] = male, Sprague Dawley, rat, plasma, po, mean ± S.D. (n = 6)
smiles,measurement,setting,value
"O=C(c1cc(Cc2n[nH]c(=O)c3ccccc23)ccc1F)N1CCN(C(=O)C2CC2)CC1 [Amorphous OLA, olaparib]",solubility kinetic at 1 h,"[1]; 1% (w/v) HP-β-CD solution, aqueous with cosolvent or surfactant or cyclodextrin, 1% (w/v) HP-β-CD, 37 °C, read-out: kinetic solubility in HP-β-CD at 1 h",337 ± 29.7 µg/mL
same,solubility kinetic at 72 h,"[1]; 1% (w/v) HP-β-CD solution, aqueous with cosolvent or surfactant or cyclodextrin, 1% (w/v) HP-β-CD, 37 °C, read-out: kinetic solubility in HP-β-CD at 72 h",398 ± 10.9 µg/mL
same,solubility kinetic at 1 h,"[1]; 1% (w/v) HPMC P645 solution, 1% (w/v) HPMC P645, 37 °C, read-out: kinetic solubility in HPMC P645 at 1 h",247 ± 43.6 µg/mL
same,solubility kinetic at 72 h,"[1]; 1% (w/v) HPMC P645 solution, 1% (w/v) HPMC P645, 37 °C, read-out: kinetic solubility in HPMC P645 at 72 h",353 ± 44.2 µg/mL
same,solubility kinetic at 1 h,"[1]; 1% (w/v) Kollidon VA64 solution, 1% (w/v) Kollidon VA64, 37 °C, read-out: kinetic solubility in Kollidon VA64 at 1 h",593 ± 72.9 µg/mL
same,solubility kinetic at 72 h,"[1]; 1% (w/v) Kollidon VA64 solution, 1% (w/v) Kollidon VA64, 37 °C, read-out: kinetic solubility in Kollidon VA64 at 72 h",343 ± 6.5 µg/mL
same,saturation solubility,[2]; 72 h,around 100 µg/mL
same,AUC0–24,[3],471 ± 150 ng·h/mL
same,Cmax,[3],415 ± 148 ng/mL
same,increase of AUC0–24 over crystalline OLA,[3]; compared to crystalline OLA,1.27 fold
same,increase of Cmax over crystalline OLA,[3]; compared to crystalline OLA,2.22 fold
same,AUC0–24,[3]; mean ± S.D. (n = 6),471.40 ± 150.17 ng·h/mL
same,Cmax,[3]; mean ± S.D. (n = 6),415.24 ± 148.20 ng/mL
same,Kel,[3]; mean ± S.D. (n = 6),0.20 ± 0.05 h⁻¹
same,MRT,[3]; mean ± S.D. (n = 6),4.28 ± 4.52 h
same,T1/2,[3]; mean ± S.D. (n = 6),3.68 ± 1.04 h
same,Tmax,[3]; mean ± S.D. (n = 6),0.29 ± 0.10 h
same,dissolution rate,"[4]; pH 1.2, 1 h",43.4 ± 3.3%
same,dissolution rate,"[4]; pH 1.2, 72 h",28.2 ± 3.9%
same,dissolution rate,"[4]; pH 6.8, 1 h",44.6 ± 3.1%
same,dissolution rate,"[4]; pH 6.8, 72 h",27.0 ± 3.0%
"O=C(c1cc(Cc2n[nH]c(=O)c3ccccc23)ccc1F)N1CCN(C(=O)C2CC2)CC1 [Crystalline OLA, olaparib]",solubility at 72 h,"[5]; crystalline OLA in 1% (w/v) HP-β-CD solution, read-out: saturation solubility in HP-β-CD",~180 µg/mL
same,solubility at 72 h,"[5]; crystalline OLA in 1% (w/v) polymer solutions other than HP-β-CD, read-out: saturation solubility in most other polymer solutions",< 150 µg/mL
same,solubility at 72 h,[2]; aqueous pH solutions,~100 µg/mL
same,half-life,[3]; [7],4.18 ± 2.27 h
same,k el,[3]; [7],5.28e-05 s⁻¹
same,AUC(0-t),[3]; [7],370 ± 63.8 ng·h/mL
same,MRT,"[3]; male, Sprague Dawley, rat, plasma, po, mean ± S.D. (n = 6), read-out: MRT",2.97 ± 0.69 h
same,AUC(0-t),"[3]; male, Sprague Dawley, rat, plasma, po",370 ± 63.8 ng·h/mL
same,Cmax,[3],187 ± 82.5 ng/mL
same,Cmax,[3]; mean ± S.D. (n = 6),187.31 ± 82.55 ng/mL
same,Tmax,[3]; mean ± S.D. (n = 6),0.63 ± 0.31 h
same,solubility in aqueous solution,[6]; aqueous solution,approximately 0.1 mg/mL
same,basic pKa,[6],−1.25
same,Biopharmaceutics Classification System (BCS) class,[6]; low solubility and low permeability,class IV
